According to patent publication US20230173018A1, “CASPOFUNGIN DERIVATIVES AND ASSAYS FOR EVALUATING ANTIFUNGAL TREATMENT EFFICACY” (priority 2020, published 2023):

What was measured:
Format in all cases: cell-based
[1] = test system: C. albicans T-2076 (DP-194); assay: microbe, parasite or virus in culture; conditions: strain no. 13, T-2076 (DP-194), clinical isolate, FKS1 HS1-S645F, HS2-R1361R/H mutation
Text: (§1) The antifungal activities of compounds 1a, 1 and 2 (collectively: caspofungin derivatives) were compared to that of caspofungin and CSF-BOD using a panel of 49 C. albicans and C. glabrata strains (Tables 1 and 2). The panel included ATCC strains and clinical isolates as well a collection of caspofungin-responsive strains and their corresponding isogenic caspofungin-resistant derivatives, constructed by introducing point mutations within and near the defined hotspots in the FKS1 and/or FKS2 genes of the GS complex. Minimal inhibitory concentration (MIC) values for all strains were determined using the broth double dilution method and are summarized in FIG. 2 and Table 2. […] The clinical breakpoints (threshold) for caspofungin-resistance in C. albicans and C. glabrata are 1 μg/mL and 0.5 μg/mL, respectively.

C. glabrata TGL00291 = assay: microbe, parasite or virus in culture; conditions: strain no. 36, TGL00291, parental BG2, FKS mutant
Text: as §1

C. glabrata TGL00054 = assay: microbe, parasite or virus in culture; conditions: strain no. 19, TGL00054, parental CST109, FKS2 mutant
Text: as §1

C. glabrata TGL00293 = assay: microbe, parasite or virus in culture; conditions: strain no. 37, TGL00293, parental BG2, FKS mutant
Text: as §1

C. glabrata TGL00065 = assay: microbe, parasite or virus in culture; conditions: strain no. 27, TGL00065, FKS mutant
Text: as §1

[2] = test system: C. albicans T-2069 (DP-85); assay: microbe, parasite or virus in culture; conditions: strain no. 14, T-2069 (DP-85), clinical isolate, FKS1 HS1-S645F mutation
Text: as §1

[3] = test system: C. albicans T-2074 (DP-122); assay: microbe, parasite or virus in culture; conditions: strain no. 12, T-2074 (DP-122), clinical isolate, FKS1 HS1-P649H mutation
Text: as §1

C. glabrata TGL00253 = assay: microbe, parasite or virus in culture; conditions: strain no. 20, TGL00253, parental CST109, FKS2 mutant
Text: as §1

C. glabrata TGL00056 = assay: microbe, parasite or virus in culture; conditions: strain no. 22, TGL00056, parental CST34, FKS mutant
Text: as §1

C. albicans SN95 = assay: microbe, parasite or virus in culture
Text: as §1

C. glabrata TGL00277 = assay: microbe, parasite or virus in culture; conditions: strain no. 33, TGL00277, parental EF1620, FKS mutant
Text: as §1

C. glabrata TGL00263 = assay: microbe, parasite or virus in culture; conditions: strain no. 28, TGL00263, parental CST78, FKS mutant
Text: as §1

C. glabrata TGL00107 = assay: microbe, parasite or virus in culture; conditions: strain no. 23, TGL00107, parental CST34, FKS mutant
Text: as §1

[4] = test system: C. glabrata T-985 (11-076); assay: microbe, parasite or virus in culture
Text: as §1

[5] = test system: C. albicans T-2077 (DP-205); assay: microbe, parasite or virus in culture; conditions: strain no. 15, T-2077 (DP-205), clinical isolate, FKS1 HS1-S645P mutation
Text: as §1

C. glabrata TGL00264 = assay: microbe, parasite or virus in culture; conditions: strain no. 29, TGL00264, parental CST78, FKS mutant
Text: as §1

C. glabrata TGL00258 = assay: microbe, parasite or virus in culture; conditions: strain no. 25, TGL00258, parental CST34, FKS mutant
Text: as §1

C. glabrata DPL1086 = assay: microbe, parasite or virus in culture; conditions: strain no. 17, DPL1086, parental ATCC 90030, FKS1 mutant HS1-S629P
Text: as §1

[6] = test system: C. albicans DPL1016 (DP-A15-10); assay: microbe, parasite or virus in culture; conditions: strain no. 3, DPL1016 (DP-A15-10), parental SC5314, FKS1 mutant HS1-S645P
Text: as §1

C. glabrata TGL00275 = assay: microbe, parasite or virus in culture; conditions: strain no. 32, TGL00275, FKS mutant
Text: as §1

C. glabrata TGL00265 = assay: microbe, parasite or virus in culture; conditions: strain no. 30, TGL00265, parental CST78, FKS mutant
Text: as §1

C. glabrata TGL00091 = assay: microbe, parasite or virus in culture; conditions: strain no. 35, TGL00091, FKS mutant
Text: as §1

C. glabrata CST78 = assay: microbe, parasite or virus in culture
Text: as §1

C. albicans CG72 = assay: microbe, parasite or virus in culture
Text: as §1

C. glabrata TGL00256 = assay: microbe, parasite or virus in culture; conditions: strain no. 24, TGL00256, parental CST34, FKS mutant
Text: as §1

[7] = test system: C. albicans T-2068 (DP-C42); assay: microbe, parasite or virus in culture; conditions: strain no. 4, T-2068 (DP-C42), parental SC5314, FKS1 HS1-F641S mutation
Text: as §1

C. glabrata TGL00294 = assay: microbe, parasite or virus in culture; conditions: strain no. 38, TGL00294, parental BG2, FKS mutant
Text: as §1

[8] = test system: C. albicans DPL1015 (DP-A15); assay: microbe, parasite or virus in culture; conditions: strain no. 2, DPL1015 (DP-A15), parental SC5314, FKS1 mutant HS1-S645S/P
Text: as §1

C. glabrata BG2 = assay: MIC, broth double dilution; conditions: strain no. 34, C. glabrata BG2
Text: as §1

C. glabrata T-192 (1775) = assay: MIC, broth double dilution; conditions: strain no. 44, T-192 (1775), clinical isolate
Text: as §1

[9] = test system: C. glabrata T-983 (11-079); assay: MIC, broth double dilution; conditions: strain no. 47, T-983 (11-079), clinical isolate
Text: as §1

C. glabrata ATCC 66032 = assay: MIC, broth double dilution; conditions: strain no. 40, C. glabrata ATCC 66032
Text: as §1

[10] = test system: C. glabrata T-191 (11-331); assay: MIC, broth double dilution; conditions: strain no. 43, T-191 (11-331), clinical isolate
Text: as §1

C. glabrata ATCC 15126 = assay: MIC, broth double dilution; conditions: strain no. 41, C. glabrata ATCC 15126
Text: as §1

Measured: MIC

CN(C)c1ccc2c(-c3ccc(C(=O)NCCCN=[N+]=[N-])cc3C(=O)[O-])c3ccc(=[N+](C)C)cc-3oc2c1 [Compound 5-TMR-azide]
>64 µg/mL: [1] | C. glabrata TGL00291 | C. glabrata TGL00054 | C. glabrata TGL00293 | C. glabrata TGL00065 | [2] | [3] | C. glabrata TGL00253 | C. glabrata TGL00056 | C. albicans SN95 | C. glabrata TGL00277 | C. glabrata TGL00263 | C. glabrata TGL00107 | [4] | [5] | C. glabrata TGL00264 | C. glabrata TGL00258 | C. glabrata DPL1086 | [6] | C. glabrata TGL00275 | C. glabrata TGL00265 | C. glabrata TGL00091 | C. glabrata CST78 | C. albicans CG72 | C. glabrata TGL00256 | [7] | C. glabrata TGL00294 | [8] | C. glabrata BG2 | C. glabrata T-192 (1775) | [9] | C. glabrata ATCC 66032 | [10] | C. glabrata ATCC 15126
